Reference: PMC11836371, “Virtual fragment screening for DNA repair inhibitors in vast chemical space” (Nature Communications, 2025)
Several values for one entry are separate records, joined by “and”; a condition that tells them apart may be missing. Identical values can stand only once. Like-named read-outs stand apart in the source and are kept apart here.

What was measured:
human OGG1 enzyme [1] = biological target: T1, human OGG1 enzyme (Homo sapiens, UniProt O15527); assay: Differential scanning fluorimetry (DSF) thermal shift assay; assay type: binding; parameters: ∆Tm (K): unit of the concentration uncertain; conditions: for ΔTm: concentration not given
T1 sequence (O15527 whole entry): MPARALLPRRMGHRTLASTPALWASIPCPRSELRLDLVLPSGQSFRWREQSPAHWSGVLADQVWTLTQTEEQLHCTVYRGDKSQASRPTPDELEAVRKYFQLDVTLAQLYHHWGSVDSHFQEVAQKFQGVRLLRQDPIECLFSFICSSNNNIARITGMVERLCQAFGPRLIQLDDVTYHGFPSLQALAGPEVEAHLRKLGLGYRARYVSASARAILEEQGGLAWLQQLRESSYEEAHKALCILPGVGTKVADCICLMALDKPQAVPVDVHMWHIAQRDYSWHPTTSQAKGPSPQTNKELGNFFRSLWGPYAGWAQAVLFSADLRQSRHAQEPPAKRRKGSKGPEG
Protocol: The temperature was increased from 20 °C to 85 °C with 10 readings/degree. Tm values were calculated using an excel template and fitting to the Boltzmann equation in Prism v.6.07 (GraphPad Software).

human OGG1 enzyme [2] = biological target: T1, human OGG1 enzyme; assay: OGG1 glycosylase activity assay (enzyme inhibition, APE1-coupled fluorescence); assay type: biochemical
[3] = 99 (unit uncertain) as printed in sheet footnote
[4] = Table S2, virtual fragment screen hits, read-out: pIC50 (converted)
[5] = 495 (unit uncertain) as printed in sheet footnote

Compound | ∆Tm (K) (human OGG1 enzyme [1]; 495 µM) | ∆Tm (K) (human OGG1 enzyme [1]; 99 μM) | other results
Cc1conc1NC(=O)c1csc2cncn12 [ZINC000772563154] | 0.52 K |  | 
CN1C(=O)Cc2cc(Nc3ncnc4c(F)cccc34)ccc21 [ZINC000350560229] |  | -0.01 K | 
Cn1ncc(NC(=O)N[C]2COc3ccc(Cl)cc32)c1C(F)F [ZINC000337657385] |  | -0.16 K | 
Cc1conc1NC(=O)c1nc(Cl)cs1 [ZINC000789997344] | -0.03 K |  | 
Cc1csc(Nc2ncnc3sccc23)n1 [ZINC000163077816] | -0.51 K |  | 
COc1ccc(C2(CNC(=O)c3ccc(F)s3)CCC2)cc1 [ZINC000572161337] |  | 0.17 K | 
C[C](CNC(=O)c1cn2c(n1)CCC2)Oc1ccc(Cl)cc1 [ZINC000047544921] |  | 0.05 K | 
CCc1ccc(C(=O)NC[C]2CS(=O)(=O)c3ccccc3O2)cc1 [ZINC001002782586] |  | -0.13 K | 
Cc1cscc1NC(=O)NCc1cccc(-n2cncn2)c1 [ZINC001624168456] |  | 0.15 K | 
Cc1csc(NC(=O)c2ccc(N)cc2)n1 [ZINC000005740683] | 0.52 K |  | 
O=C(Cc1c(F)cccc1F)Nc1noc2c1CCCC2 [compound 6] |  | 1.1 ± 0.5 K | IC50 (human OGG1 enzyme [2]; Table 1, mean ± SD, at least three independent replicates, read-out: pIC50 (converted)): 36.3 µM; ∆Tm (K) (human OGG1 enzyme [1]; [3]): 1.1 ± 0.5 K
Cn1ccnc1NC(=O)c1nc(Cl)cs1 [ZINC000851710058] | -0.05 K |  | 
COc1ccc(F)cc1CNC(=O)c1cn[nH]c1 [ZINC000188683358] | -0.01 K |  | 
O=C(NCC1(O)CN(C(=O)c2cccnn2)C1)c1ccc(Cl)cc1 [ZINC000584413720] |  | 0.65 K | 
CC(C)(NC(=O)NCc1ccco1)c1ccc(Br)cc1 [ZINC000088254610] |  | 0.27 K | 
Cc1cc(NC(=O)c2coc(C3CC3)n2)cs1 [ZINC000634423932] | -0.08 K |  | 
COc1ccc2[nH]cc(CC(=O)Nc3nnc4cc(C)ccn34)c2c1 [ZINC000520908378] |  | -0.38 K | 
Cc1cccc2nc(C(=O)NCc3ccc(Br)o3)cn12 [ZINC000677630607] |  | -0.08 K | 
O=C(NCc1ccn(-c2ccccc2)n1)c1cc(-c2ccccc2)no1 [ZINC000617287579] |  | -0.19 K | 
CCc1ccc(CC(=O)Nc2nnc(C3CC3)n2C)cc1 [ZINC000157183023] |  | Inactivea | 
Cc1cc(CNC(=O)c2c(O)cccc2F)[nH]n1 [ZINC000681276767] | 0.01 K |  | 
Cc1n[nH]cc1CNC(=O)C(C)c1ccccc1 (stereo not drawn) [ZINC000182379077] | 0.08 K |  | 

Compound | ∆Tm (K) (human OGG1 enzyme [1]; 495 µM) | ∆Tm (K) (human OGG1 enzyme [1]; 99 μM) | other results
COc1ccc([C]2CCCCCN2C(=O)Nc2noc(C)c2C)cc1 [ZINC000455661485] |  | -0.14 K | 
CCN(Cc1ccccc1)S(=O)(=O)NC1Cc2ccccc2C1 [ZINC001146929060] |  | 0.00 K and 0 K | 
Cc1ccc(NC(=O)N2CC(O)(c3ccc(Cl)cc3)C2)s1 [ZINC000776423770] |  | -0.42 K | 
O=C(NCc1cnn(-c2ccccc2)c1)c1cc(C2CC2)no1 [ZINC000045518705] |  | -0.07 K | 
Cc1ccc(CNC(=O)Nc2cnn(C)c2C(F)(F)F)c(C)c1 [ZINC000000241283] |  | 0.39 K | 
Cn1c(=O)n(C)c2cc(Nc3ncnc4ccccc34)ccc21 [ZINC000358521717] |  | 0.43 K | 
CC(=O)Nc1nc(-c2ccc(Cl)cc2)n[nH]1 [ZINC000517746346] | -0.15 K |  | 
Cc1ccc(CNC(=O)c2ccc(F)nc2)cc1 [compound 3] | 0.6 K |  | IC50 (human OGG1 enzyme [2]; [4]): > 100 µM; ∆Tm (K) (human OGG1 enzyme [1]; [5]): 0.6 K
Cc1n[nH]cc1CNC(=O)C1Cc2ccccc21 (stereo not drawn) [ZINC000088452370] | 0.26 K |  | 
Cc1csc(NC(=O)N2CC(C)C(O)C2)n1 (stereo not drawn) [ZINC000350512979] | 0.07 K |  | 
Cn1nc(Nc2ncnc3cc(F)c(F)cc23)cc1C1CC1 [ZINC000439491208] |  | -0.04 K | 
O=C(Nc1noc2c1CCCC2)[C@H]1Cc2ccccc21 [compound 5] |  | 4.1 ± 0.7 K | IC50 (human OGG1 enzyme [2]; read-out: IC50): 58 µM; ∆Tm (K) (human OGG1 enzyme [1]; [3]): 4.1 ± 0.7 K; ΔTm (human OGG1 enzyme [1]): 4.1 K
O=C(Nc1noc2c1CCCC2)C1CC12CCC2 (stereo not drawn) [compound 1] |  |  | OGG1 inhibition, dose-response (Figure2C) (human OGG1 enzyme [2]; Concentration (M) 9.67e-7): 3.85 and 6.91; OGG1 inhibition, dose-response (Figure2C) (human OGG1 enzyme [2]; Concentration (M) 0.000248): 16.25 and 9.26; OGG1 inhibition, dose-response (Figure2C) (human OGG1 enzyme [2]; Concentration (M) 0.000495): 25.93 and 22.47; inhibition at 99 µM (human OGG1 enzyme [2]; at 99 μM, read-out: percent inhibition of OGG1): < 50%; IC50 (human OGG1 enzyme [2]; listed as Fragment 1): too weak to determine an IC50 value; IC50 (human OGG1 enzyme [2]; read-out: IC50): > 99 µM; ∆Tm (K) (human OGG1 enzyme [1]; [5]): 2.8 K; ΔTm (human OGG1 enzyme [1]): 2.8 K
O=C(NCC1([C](O)c2ccccc2)CC1)c1ccc(Cl)cc1 [ZINC000700852234] |  | -0.27 K | 
Cc1cnc(Nc2ncnc3ccccc23)s1 [ZINC000031949200] | -0.03 K |  | 
c1cnc2ccc(CNc3nnc4ccccn34)cc2c1 [ZINC000155922887] |  | inactivea | 
CC1(C)CC(NC(=O)c2csc3cncn23)C1 [compound 4] | 0.5 K |  | IC50 (human OGG1 enzyme [2]; [4]): > 100 µM; ∆Tm (K) (human OGG1 enzyme [1]; [5]): 0.5 K
Cc1ccc(NC(=O)N2CC(O)(c3ccc(Cl)cc3)C2)s1 [ZINC000633809751] |  | 0.48 K | 
O=C(NCC1(O)CCC1)c1nc(Cl)cs1 [ZINC000789956517] | 0.07 K |  | 
CCC(C)(O)C(=O)Nc1nnc2n1CCCC2 (stereo not drawn) [ZINC000935297684] | -0.15 K |  | 
C[C]C(=O)Nc1nnc2ccccn12 [ZINC000613462643] |  | 0.05 K | 
O=C(NCc1ccc2oc(=O)[nH]c2c1)c1cc(C2CC2)on1 [ZINC000025095824] |  | 0.10 K and 0.1 K | 

Compound | ∆Tm (K) (human OGG1 enzyme [1]; 495 µM) | ∆Tm (K) (human OGG1 enzyme [1]; 99 μM) | other results
Cn1ncc2c(Nc3cccc(-c4cccs4)c3)ncnc21 [ZINC000445022399] |  | -0.23 K | 
C=Cc1ccc(C(=O)NCc2cn(-c3ccccc3)nc2C)cc1 [ZINC000192206237] |  | 0.83 K | 
Cc1nocc1NC(=O)Nc1ccnn1C(C)C [ZINC000866108350] | -0.03 K |  | 
Cc1ccccc1CNC(=O)Nc1cnnn1C [ZINC000787791820] | -0.02 K |  | 
O=C(Cn1c(C(F)(F)F)nc2ccccc21)NCc1ccccc1 [ZINC000032814728] |  | 0.79 K | 
COCC(C)(O)C(=O)Nc1cnc2ccccn12 (stereo not drawn) [ZINC000618358369] | 0.11 K |  | 
Cc1ccc(C(=O)NCc2nc(-c3cccnc3)no2)cc1C [ZINC001046413262] |  | -0.07 K | 
O=C(NC1CN(C(=O)c2ccc(Cl)s2)C1)c1ccc(Cl)o1 [ZINC000357905855] |  | 0.23 K | 
C[C](NC(=O)c1ccc(C)nc1)c1cnn(-c2ccc(F)cc2)c1C [ZINC000142711832] |  | -0.11 K | 
CC1(C)CC1(C)NC(=O)c1cc2cccn2cn1 (stereo not drawn) [compound 2] | 1.6 K and > 1 K |  | IC50 (human OGG1 enzyme [2]; [4]): > 100 µM; ∆Tm (K) (human OGG1 enzyme [1]; [5]): 1.6 K
O=C(NCc1nc(-c2ccccc2)no1)c1cn(-c2ccccc2)nn1 [ZINC000507023994] |  | -0.92 K | 
COCc1csc(NCc2ccccc2)n1 [ZINC000196610182] | -0.06 K |  | 
Cc1n[nH]cc1CNC(=O)NC1(C)CC1(C)C (stereo not drawn) [ZINC000663691150] | 0.01 K |  | 
CCCC1CCCC1C(=O)NCc1c[nH]nc1C (stereo not drawn) [ZINC000294547394] | 0.18 K |  | 
O=C(NCc1ccccc1O)c1ccc(F)cc1 [ZINC000082283111] | 0.67 K |  | 
Cc1cc(=O)c(C(=O)NC2(C)CC2(C)C)c[nH]1 (stereo not drawn) [ZINC000620078540] | 0.03 K |  | 
C[C](CNC(=O)c1cn(-c2ccccc2)nn1)Oc1ccc(C)cc1 [ZINC000080662795] |  | -0.11 K | 
CC1CC1CNC(=O)C1CCc2cccnc21 (stereo not drawn) [ZINC000341791847] | 0.38 K |  | 
Cc1ccc(NC(=O)Nc2c[nH]nc2C)s1 [ZINC000075413056] | 0.35 K |  | 
C[C](CCc1ccccc1)C(=O)N1CC(c2ccccc2)C1 [ZINC000342133714] |  | 0.08 K | 
Cc1ccn2c(NC(=O)C3(Oc4ccc(Cl)cc4)CC3)nnc2c1 [ZINC000341519123] |  | 0.37 K | 
O=S(=O)(Nc1ccc(Cl)cc1F)N1CCc2ccccc2C1 [ZINC000990255105] |  | -0.03 K | 
